The structures appear in SMILES notation.

Sequence of Aurora B/INCENP (Q96GD4 whole entry): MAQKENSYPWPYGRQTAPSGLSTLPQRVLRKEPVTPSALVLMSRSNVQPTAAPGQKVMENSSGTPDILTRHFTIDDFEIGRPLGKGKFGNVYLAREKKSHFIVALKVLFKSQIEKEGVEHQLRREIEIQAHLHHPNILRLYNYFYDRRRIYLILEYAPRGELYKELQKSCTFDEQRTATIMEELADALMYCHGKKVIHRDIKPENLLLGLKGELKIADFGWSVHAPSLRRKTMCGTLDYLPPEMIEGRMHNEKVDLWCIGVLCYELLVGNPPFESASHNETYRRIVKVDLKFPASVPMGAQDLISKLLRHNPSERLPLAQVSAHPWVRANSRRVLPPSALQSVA
Sequence of Aurora B/INCENP (Q9NQS7 whole entry partner): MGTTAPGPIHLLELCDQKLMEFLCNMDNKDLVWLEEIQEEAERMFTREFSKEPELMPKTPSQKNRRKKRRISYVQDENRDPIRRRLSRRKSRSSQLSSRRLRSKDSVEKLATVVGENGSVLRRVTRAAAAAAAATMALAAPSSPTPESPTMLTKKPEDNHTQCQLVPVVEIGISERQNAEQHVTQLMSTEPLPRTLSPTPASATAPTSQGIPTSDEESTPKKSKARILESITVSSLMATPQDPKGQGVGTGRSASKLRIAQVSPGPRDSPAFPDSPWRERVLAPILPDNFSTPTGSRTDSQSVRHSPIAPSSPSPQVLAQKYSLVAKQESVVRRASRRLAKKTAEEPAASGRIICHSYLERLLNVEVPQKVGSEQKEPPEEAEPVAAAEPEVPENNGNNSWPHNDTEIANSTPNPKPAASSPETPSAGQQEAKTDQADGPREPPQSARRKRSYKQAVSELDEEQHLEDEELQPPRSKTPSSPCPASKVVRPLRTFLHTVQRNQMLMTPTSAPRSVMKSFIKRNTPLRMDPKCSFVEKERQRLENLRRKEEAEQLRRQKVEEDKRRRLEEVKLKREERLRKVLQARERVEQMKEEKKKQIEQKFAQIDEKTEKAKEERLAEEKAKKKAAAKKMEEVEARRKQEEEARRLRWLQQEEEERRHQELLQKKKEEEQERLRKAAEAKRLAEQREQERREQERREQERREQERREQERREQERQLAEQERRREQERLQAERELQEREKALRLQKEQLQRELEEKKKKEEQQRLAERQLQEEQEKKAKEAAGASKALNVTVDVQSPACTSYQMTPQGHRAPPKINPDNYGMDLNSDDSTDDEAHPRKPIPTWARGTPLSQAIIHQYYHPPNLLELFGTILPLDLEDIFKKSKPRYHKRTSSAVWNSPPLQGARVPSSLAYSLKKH

The experiment addresses Aurora B/INCENP (Homo sapiens, UniProt Q96GD4). The experiment can be described thus: Determination of inhibition of AIK: Aurora B/INCENP direct fluorescence polarization (IMAP) assay. The experiment is classed as biochemical. Particulars: 10 uM ATP, 0.8 nM Aurora B/INCENP; values given as bins; read-out: IC50 of Exemplified Compounds Against AIK B. (Polarisation of emitted light reports the rotation of a fluorescent probe.)
One may read the IC50 as the concentration that gives 50% inhibition. On to `Cc1cnc2[nH]c3c(C)c(C(=O)NC4CCN(C)CC4)cc(-c4cccc(C(=O)NC5CC5)c4)c3c2c1` [Compound 228, 5-(3-(cyclopropylcarbamoyl)phenyl)-3,8-dimethyl-N-(1-methylpiperidin-4-yl)-9H-pyrido[2,3-b]indole-7-carboxamide], for which the IC50 is above 13 nM. As to `CCS(=O)(=O)c1cccc(-c2ccc(OC[C@@H](O)CO)c3[nH]c4ncc(C)cc4c23)c1` [Compound 230, (S)-3-(5-(3-(ethylsulfonyl)phenyl)-3-methyl-9H-pyrido[2,3-b]indol-8-yloxy)propane-1,2-diol], the IC50 lay in the range of 4 to 5.5 nM. To `CCS(=O)(=O)c1cccc(-c2ccc(OC[C@H](O)CO)c3[nH]c4ncc(C)cc4c23)c1` [Compound 231, (R)-3-(5-(3-(ethylsulfonyl)phenyl)-3-methyl-9H-pyrido[2,3-b]indol-8-yloxy)propane-1,2-diol] belongs below 4 nM; to `CCS(=O)(=O)c1cccc(-c2ccc(OC[C@H](O)CN(C)C)c3[nH]c4ncc(C)cc4c23)c1` [Compound 232, (R)-1-(dimethylamino)-3-(5-(3-(ethylsulfonyl)phenyl)-3-methyl-9H-pyrido[2,3-b]indol-8-yloxy)propan-2-ol], 5.6 to 8.5 nM; to `CCS(=O)(=O)c1cccc(-c2ccc(OC[C@@H](C)O)c3[nH]c4ncc(C)cc4c23)c1` [Compound 233, (R)-1-(5-(3-(ethylsulfonyl)phenyl)-3-methyl-9H-pyrido[2,3-b]indol-8-yloxy)propan-2-ol], 5.6 to 8.5 nM.

Consider `CCS(=O)(=O)c1cccc(-c2ccc(OC[C@H](C)O)c3[nH]c4ncc(C)cc4c23)c1` [Compound 234, (S)-1-(5-(3-(ethylsulfonyl)phenyl)-3-methyl-9H-pyrido[2,3-b]indol-8-yloxy)propan-2-ol], for which the IC50 is 4 to 5.5 nM. To `CCS(=O)(=O)c1cccc(-c2cc(NC(=O)CCN(C)C)c(OC)c3[nH]c4ncc(C)cc4c23)c1` [Compound 240, 3-(dimethylamino)-N-(5-(3-(ethylsulfonyl)phenyl)-8-methoxy-3-methyl-9H-pyrido[2,3-b]indol-7-yl)propanamide] belongs 5.6 to 8.5 nM.

With `CCS(=O)(=O)c1cccc(-c2cc(NC(=O)C3CC3)c(OC)c3[nH]c4ncc(C)cc4c23)c1` [Compound 242, N-(5-(3-(ethylsulfonyl)phenyl)-8-methoxy-3-methyl-9H-pyrido[2,3-b]indol-7-yl)-cyclopropanecarboxamide], the IC50 was 8.6 to 13 nM. In the case of `CCS(=O)(=O)c1cccc(-c2cc(NC(=O)C3CCN(C(C)=O)CC3)c(OC)c3[nH]c4ncc(C)cc4c23)c1` [Compound 243, 1-acetyl-N-(5-(3-(ethylsulfonyl)phenyl)-8-methoxy-3-methyl-9H-pyrido[2,3-b]indol-7-yl)piperidine-4-carboxamide], the half-maximal inhibitory concentration (IC50) was 8.6 to 13 nM. Turning to `CCS(=O)(=O)c1cccc(-c2cc(Cl)c(OC)c3[nH]c4ncc(C)cc4c23)c1` [Compound 246, 7-chloro-5-(3-(ethylsulfonyl)phenyl)-8-methoxy-3-methyl-9H-pyrido[2,3-b]indole], the IC50 was in the range of 5.6 to 8.5 nM. To `CCS(=O)(=O)c1cccc(-c2cc(Cl)c(OCCCO)c3[nH]c4ncc(C)cc4c23)c1` [Compound 248, 3-(7-chloro-5-(3-(ethylsulfonyl)phenyl)-3-methyl-9H-pyrido[2,3-b]indol-8-yloxy)propan-1-ol] belongs above 13 nM; to `CCS(=O)(=O)c1cccc(-c2cc(N(C)C(=O)C3CC3)c(OC)c3[nH]c4ncc(C)cc4c23)c1` [Compound 253, N-(5-(3-(ethylsulfonyl)phenyl)-8-methoxy-3-methyl-9H-pyrido[2,3-b]indol-7-yl)-N-methylcyclopropanecarboxamide], above 13 nM.

For the molecule `CCS(=O)(=O)c1cccc(-c2cc(N(C)C(=O)CCN(C)C)c(OC)c3[nH]c4ncc(C)cc4c23)c1` [Compound 254, 3-(dimethylamino)-N-(5-(3-(ethylsulfonyl)phenyl)-8-methoxy-3-methyl-9H-pyrido[2,3-b]indol-7-yl)-N-methylpropanamide], the IC50 was above 13 nM. For the molecule `CCS(=O)(=O)c1cccc(-c2ccc(OCCN3CCOCC3)c3[nH]c4ncc(Cl)cc4c23)c1` [Compound 255, 4-(2-(3-chloro-5-(3-(ethylsulfonyl)phenyl)-9H-pyrido[2,3-b]indol-8-yloxy)ethyl)morpholine], the concentration for half-maximal inhibition (IC50) was above 13 nM. To `CCS(=O)(=O)c1cccc(-c2ccc(OCCC#N)c3[nH]c4ncc(Cl)cc4c23)c1` [Compound 256, 3-(3-chloro-5-(3-(ethylsulfonyl)phenyl)-9H-pyrido[2,3-b]indol-8-yloxy)propanenitrile] belongs above 13 nM. Regarding `CCS(=O)(=O)c1cccc(-c2ccc(OCCCN(C)C)c3[nH]c4ncc(C(F)(F)F)cc4c23)c1` [Compound 258, 3-(5-(3-(ethylsulfonyl)phenyl)-3-(trifluoromethyl)-9H-pyrido[2,3-b]indol-8-yloxy)-N,N-dimethylpropan-1-amine], the IC50 was above 13 nM.

For the molecule `COc1ccc(-c2cccc(C(=O)N3CCOCC3)c2)c2c1[nH]c1ncc(C)cc12` [Compound 259, (3-(8-methoxy-3-methyl-9H-pyrido[2,3-b]indol-5-yl)phenyl)(morpholino)methanone], the IC50 was above 13 nM. As to `CONC(=O)c1cccc(-c2ccc(OC)c3[nH]c4ncc(C)cc4c23)c1` [Compound 260, N-methoxy-3-(8-methoxy-3-methyl-9H-pyrido[2,3-b]indol-5-yl)benzamide], the concentration for half-maximal inhibition (IC50) was above 13 nM. To `CCN(CC)CCNC(=O)c1cc(-c2cccc(S(=O)(=O)CC)c2)c2c([nH]c3ncc(C)cc32)c1C` [Compound 262, N-(2-(diethylamino)ethyl)-5-(3-(ethylsulfonyl)phenyl)-3,8-dimethyl-9H-pyrido[2,3-b]indole-7-carboxamide] belongs 8.6 to 13 nM. Then `CCN(CCO)CCCOc1ccc(-c2cccc(S(=O)(=O)C3CC3)c2)c2c1[nH]c1ncc(C)cc12` [Compound 270, 2-((3-(5-(3-(cyclopropylsulfonyl)phenyl)-3-methyl-9H-pyrido[2,3-b]indol-8-yloxy)propyl)(ethyl)amino)ethanol], with 4 to 5.5 nM; and `CCN(CCCOc1ccc(-c2cccc(S(=O)(=O)C3CC3)c2)c2c1[nH]c1ncc(C)cc12)CCOP(=O)(O)O` [Compound 272, 2-((3-(5-(3-(cyclopropylsulfonyl)phenyl)-3-methyl-9H-pyrido[2,3-b]indol-8-yloxy)propyl)(ethyl)amino)ethyl dihydrogen phosphate], with 5.6 to 8.5 nM; and `CCN(CCO)CCCOc1ccc(-c2cccc(C(=O)NC3CC3)c2)c2c1[nH]c1ncc(C)cc12` [Compound 273, N-cyclopropyl-3-(8-(3-(ethyl(2-hydroxyethyl)amino)propoxy)-3-methyl-9H-pyrido[2,3-b]indol-5-yl)benzamide], with 5.6 to 8.5 nM.

For the molecule `CCN(CCCOc1ccc(-c2cccc(C(=O)NC3CC3)c2)c2c1[nH]c1ncc(C)cc12)CCOP(=O)(O)O` [Compound 275, 2-((3-(5-(3-(cyclopropylcarbamoyl)phenyl)-3-methyl-9H-pyrido[2,3-b]indol-8-yloxy)propyl)(ethyl)amino)ethyl dihydrogen phosphate], the IC50 lay in the range of 5.6 to 8.5 nM. Then `CCN(CCO)CCCOc1ccc(-c2cccc(S(=O)(=O)CC)c2)c2c1[nH]c1ncc(C)cc12` [Compound 276, 2-(ethyl(3-(5-(3-(ethylsulfonyl)phenyl)-3-methyl-9H-pyrido[2,3-b]indol-8-yloxy)propyl)amino)ethanol], with 5.6 to 8.5 nM; and `CCN(CCCOc1ccc(-c2cccc(S(=O)(=O)CC)c2)c2c1[nH]c1ncc(C)cc12)CCOP(=O)(O)O` [Compound 278, 2-(ethyl(3-(5-(3-(ethylsulfonyl)phenyl)-3-methyl-9H-pyrido[2,3-b]indol-8-yloxy)propyl)amino)ethyl dihydrogen phosphate], with 4 to 5.5 nM.

As to `CN1CCC(COc2ccc(-c3cccc(C(=O)NC4CC4)c3)c3c2[nH]c2ncc(Cl)cc23)CC1` [Compound 285, 3-(3-chloro-8-((1-methylpiperidin-4-yl)methoxy)-9H-pyrido[2,3-b]indol-5-yl)-N-cyclopropylbenzamide], the IC50 was 8.6 to 13 nM. Take `CN1CCC(COc2ccc(-c3cccc(S(=O)(=O)C4CC4)c3)c3c2[nH]c2ncc(Cl)cc23)CC1` [Compound 286, 3-chloro-5-(3-(cyclopropylsulfonyl)phenyl)-8-((1-methylpiperidin-4-yl)methoxy)-9H-pyrido[2,3-b]indole]: the IC50 is 8.6 to 13 nM. As for `CCS(=O)(=O)c1cccc(-c2ccc(OCC3CCN(C)CC3)c3[nH]c4ncc(F)cc4c23)c1` [Compound 287, 5-(3-(ethylsulfonyl)phenyl)-3-fluoro-8-((1-methylpiperidin-4-yl)methoxy)-9H-pyrido[2,3-b]indole], the IC50 was 5.6 to 8.5 nM. Regarding `CCS(=O)(=O)c1cccc(-c2ccc(OCCCO)c3[nH]c4ncc(Cl)cc4c23)c1` [Compound 291, 3-(3-chloro-5-(3-(ethylsulfonyl)phenyl)-9H-pyrido[2,3-b]indol-8-yloxy)propan-1-ol], the IC50 was below 4 nM. With `CCN(CCO)CCCOc1ccc(-c2cccc(S(=O)(=O)CC)c2)c2c1[nH]c1ncc(Cl)cc12` [Compound 293, 2-((3-(3-chloro-5-(3-(ethylsulfonyl)phenyl)-9H-pyrido[2,3-b]indol-8-yloxy)propyl)(ethyl)amino)ethanol], the IC50 was below 4 nM. Then `CCN(CCCOc1ccc(-c2cccc(S(=O)(=O)CC)c2)c2c1[nH]c1ncc(Cl)cc12)CCOP(=O)(O)O` [Compound 294, 2-((3-(3-chloro-5-(3-(ethylsulfonyl)phenyl)-9H-pyrido[2,3-b]indol-8-yloxy)propyl)(ethyl)amino)ethyl dihydrogen phosphate], with below 4 nM. For the molecule `CCN(CCO)CCCOc1ccc(-c2cccc(S(=O)(=O)C3CC3)c2)c2c1[nH]c1ncc(Cl)cc12` [Compound 298, 2-((3-(3-chloro-5-(3-(cyclopropylsulfonyl)phenyl)-9H-pyrido[2,3-b]indol-8-yloxy)propyl)(ethyl)amino)ethanol], the half-maximal inhibitory concentration (IC50) is below 4 nM. To `Cc1cnc2[nH]c3c(OCCCN4CCC(O)CC4)ccc(-c4cccc(S(=O)(=O)C5CC5)c4)c3c2c1` [Compound 300, 1-(3-(5-(3-(cyclopropylsulfonyl)phenyl)-3-methyl-9H-pyrido[2,3-b]indol-8-yloxy)propyl)piperidin-4-ol] belongs below 4 nM.
